From patent publication US11787772B2, “Carboxylic diarythiazepineamines as mixed mu- and delta-opioid receptor agonists” (THE TRUSTEES OF COLUMBIA UNIVERSITY IN THE CITY OF NEW YORK, priority 2017, dated 2023)
Where a name gives a salt, the structure may show the parent alone. Read-outs that look alike come from different tables or passages of the source.

Assays:
[1] = molecular target: T1, human mu opioid receptor (MOR) (Homo sapiens, UniProt P35372); assay: BRET assay measuring G protein activation, agonist activity at human MOR; assay type: cell-based; details: for MOR potency relative to analogs lacking substitution at position 2: dihalo-substituted core
T1 construct: expressed in transfected cells; host or cells: HEK-293T
Procedure: (§1) The diarylthiazepinamine carboxylic acids (9) were tested for agonist activity at the human mu opioid receptor (MOR) and delta opioid receptor (DOR) using bioluminescence resonance energy transfer (BRET) assays measuring G protein activation as previously described (Table 1) (Rives, M.-L. et al. 2012; Negri, A. et al. 2013).
Human MOR cDNA was transfected alongside GααB with RLuc8 inserted at position 91 (GααB—RLuc8), Gβ1 (β1), and Gγ2 fused to the full-length mVenus at its N terminus (mVenus-γ2) into HEK-293T cells (5×10^6 cells/plate) in 10-cm dishes using PEI (Polysciences Inc.; Warrington, PA) in a 1:1 ratio diluted in Opti-MEM (Life Technologies Corp.; Grand Island, NY) to assay for G protein activation as described previously (Rives, M.-L. et al. 2012; Negri, A. et al. 2013). Cells were maintained in Dulbecco's Modified Eagle Medium (high glucose #11965; Life Technologies) supplemented with 10% FBS (Premium Select, Atlanta Biologicals; Atlanta, GA) and 100 U/mL penicillin and 100 μg/mL streptomycin (#15140, Life Technologies). After 24 hours the media was changed, and the experiment was performed 24 hours later (48 hours after transfection).
(§2) Transfected cells were dissociated and re-suspended in phosphate-buffered saline (PBS). Approximately 200,000 cells/well were added to a black-framed, white well 96-well plate (#60050; Perkin Elmer; Waltham, MA). The microplate was centrifuged and the cells were re-suspended in PBS. Then 5 μM of the luciferase substrate coelenterazine H was added to each well for 5 minutes. Following coelenterazine H addition, ligands were added and the BRET signal was measured at 5 minutes on a PHERAstar FS plate reader. Quantification of the BRET signal required calculating the ratio of the light emitted by the energy acceptor, mVenus (510-540 nm), over the light emitted by the energy donor, RLuc8 (485 nm). […] Dose response curves were fit using a three-parameter logistics equation in GraphPad Prism 6.
The additional diarylthiazepinamine carboxylic acids (9i, 9j, 9k, and 91) were tested for agonist activity at the human mu opioid receptor (MOR) using bioluminescence resonance energy transfer (BRET) assays measuring G protein activation (Table 2) as previously described (Rives, M.-L. et al. 2012; Negri, A. et al. 2013; Example 2 of the present application).

[2] = molecular target: T2, human delta opioid receptor (DOR) (Homo sapiens, UniProt P41143); assay: BRET assay measuring G protein activation, agonist activity at human DOR; assay type: cell-based
T2 construct: expressed in transfected cells
Procedure: as §1, §2

physchem = details: 25 °C, thermodynamic from solid
Procedure: Test compounds (4 mg) were added to 200 μL of one of the tested aqueous solutions (hereinafter—buffer): 100 mM aqueous HCl (pH 1) or 100 mM Na-phosphate buffer (pH 7). The obtained suspensions/solutions with the theoretical concentration of 20 mg/mL were further allowed to equilibrate at 25° C. on a thermostatic orbital shaker for 24 hours and then centrifuged at 6000 rpm for 4 minutes and filtered through HTS filter plates using a vacuum manifold. In parallel, compound dilutions in 50% acetonitrile/HCl and 30% acetonitrile/Na-phosphate buffer mixes were prepared to theoretical concentrations of 0 mg/mL (blank), 0.1 mg/mL, 0.2 mg/mL, and 0.4 mg/mL in duplicates to generate calibration curves falling within the optimum UV absorption range. The filtrates of test compounds were diluted 100-fold with acetonitrile-buffer mixtures before measuring. The filtered supernatant test samples were transferred to 96-well plates and measured for absorbance in the 200-550 nm range with 5 nm step increment. The concentrations of compounds in supernatants were calculated using the measured absorbance and the previously determined calibration curve. Proper absorbance wavelengths for calculations were selected for each compound manually based on absorbance maxima (absolute absorbance unit values for the minimum and maximum concentration points within 0-2.5 OD range).

[3] = Solubility determination (Method A), neutral water; assay type: physicochemical; details: for solubility at 24 h: distilled water, thermodynamic from solid, neutral water, 20° C., Method A (24 h stirring), average of 2 independent trials, read-out: Aqueous Solubility (mg/mL @ 20° C.)
Procedure: (§3) A quantity of the appropriate compound sufficient to saturate the resulting solution was added to distilled water (0.50 mL) and the mixture was stirred vigorously for 24 h at room temperature (20° C.). The mixture was then centrifuged for 3 min. at 21,000×g and the stir bar was carefully removed. The mixture was then centrifuged again for 5 min. at 21,000×g and the supernatant was carefully removed by syringe and passed through a […] syringe filter. An aliquot (300 μL) of the filtered supernatant was concentrated in vacuo and the mass of the residual solids determined in order to calculate the solubility.

male C57BL/6 mice = assay: Analgesic activity in hot plate assay; assay type: in vivo, mouse; details: for ED50: Mus musculus, sc, hot plate 55° C., male C57BL/6 mice, tested at 15 post-injection
Procedure: Male C57BL/6 mice were timed for latency to jump on a hot-plate apparatus set to 55° C., using a 30 s cutoff to prevent tissue damage. Following a baseline test, animals were injected subcutaneously (s.c.) with escalating doses of drug and tested at […] (time of maximal effect). Dose-response curves were fit via nonlinear regression using GraphPad Prism (La Jolla, CA).

[4] = Solubility determination (Method B), neutral water; assay type: physicochemical; details: distilled water, thermodynamic from solid; neutral water, 20° C., Method B (2 h orbital shaker); read-out: Aqueous Solubility (mg/mL @ 20° C.)
Procedure: as §3, with “agitated on an orbital shaker” for “was stirred vigorously”, “2” for “24”, “centrifuged” for “centrifuged for 3 min. at 21,000×g and the stir bar was carefully removed. The mixture was then centrifuged again”

[5] = BRET G protein activation, HEK-293T cells, error ± SEM of 2 or more independent trials, read-out: Human MOR (EC50)
[6] = BRET G protein activation, error ± SEM of 2 or more independent trials, read-out: Human DOR (EC50)

T1 sequence (P35372 whole entry): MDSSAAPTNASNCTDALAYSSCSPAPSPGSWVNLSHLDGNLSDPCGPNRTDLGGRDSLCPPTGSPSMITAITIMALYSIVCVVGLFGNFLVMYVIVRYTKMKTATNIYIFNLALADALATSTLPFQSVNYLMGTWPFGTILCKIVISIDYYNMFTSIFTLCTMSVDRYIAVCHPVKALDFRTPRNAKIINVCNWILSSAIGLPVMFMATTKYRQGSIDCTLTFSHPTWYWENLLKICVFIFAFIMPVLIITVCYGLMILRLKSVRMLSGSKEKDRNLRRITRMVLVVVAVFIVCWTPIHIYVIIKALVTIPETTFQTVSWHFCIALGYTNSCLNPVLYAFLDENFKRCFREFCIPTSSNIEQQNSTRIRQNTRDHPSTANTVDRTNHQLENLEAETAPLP
T2 sequence (P41143 whole entry): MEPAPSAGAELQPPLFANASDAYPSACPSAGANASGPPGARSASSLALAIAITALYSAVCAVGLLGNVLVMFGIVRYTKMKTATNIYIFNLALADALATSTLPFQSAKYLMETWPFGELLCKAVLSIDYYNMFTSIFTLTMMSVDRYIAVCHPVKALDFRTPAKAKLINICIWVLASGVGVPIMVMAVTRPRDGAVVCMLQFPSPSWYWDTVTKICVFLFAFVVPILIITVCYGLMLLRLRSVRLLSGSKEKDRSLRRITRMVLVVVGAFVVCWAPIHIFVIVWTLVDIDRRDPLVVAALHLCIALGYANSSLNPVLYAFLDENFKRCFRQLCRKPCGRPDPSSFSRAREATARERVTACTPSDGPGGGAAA

Compound: Cc1ccc2c(c1)S(=O)(=O)N(C)c1ccccc1C2NCCCCCCC(=O)O (stereo not shown) [3-Methyl-substituted Analog, reference compound]
- EC50 [1]: 890 nM
- EC50 [2]: > 10000 nM

Compound: CCOC(=O)CCCCCCNC1c2ccccc2N(C)S(=O)(=O)c2cc(SC)ccc21 (stereo not shown) [Compound 8c, Ethyl 7-((6-methyl-3-(methylthio)-5,5-dioxido-6,11-dihydrodibenzo[c,f][1,2]thiazepin-11-yl)amino)heptanoate]
- EC50 [1, 5]: 222 nM
- Emax ([2]; BRET G protein activation): 70%
- Human DOR agonist type (partial / full agonist) ([2]; BRET G protein activation): partial agonist
- EC50 [2, 6]: 7000 nM

Compound: C#Cc1ccc2c(c1)S(=O)(=O)N(C)c1ccccc1C2NCCCCCCC(=O)O (stereo not shown) [Compound 9a, 7-((3-Ethynyl-6-methyl-5,5-dioxido-6,11-dihydrodibenzo [c,f][1,2]thiazepin-11-yl)amino)heptanoic acid]
- EC50 [1, 5]: 53.3 ± 18 nM
- EC50 [2, 6]: 5900 ± 300 nM

Compound: CN1c2ccccc2C(NCCCCCCC(=O)O)c2cc(F)c(Br)cc2S1(=O)=O (stereo not shown) [Compound 9b, 7-((3-Bromo-2-fluoro-6-methyl-5,5-dioxido-6,1-dihydrodibenzo [c,f][1,2]thiazepin-11-yl)amino) heptanoic acid hydrochloride salt]
- solubility (physchem; pH 1, simulated gastric fluid): 1100 µg/mL
- solubility (physchem; pH 7, aqueous buffer): 840 µg/mL
- EC50 [1]: 83.1 ± 5.7 nM
- MOR potency relative to analogs lacking substitution at position 2 [1]: equipotent or more potent
- solubility at 24 h [3]: 9.8 mg/mL
- Solubility relative to monohalo counterpart bromotianeptine ([3]; neutral unbuffered water): 2-3 fold
- EC50 [2]: 11500 ± 2200 nM
- ED50 (male C57BL/6 mice): 5.1 mg/kg
- Analgesic activity in the mouse hot plate assay (male C57BL/6 mice; much higher potency than tianeptine): potent analgesics

Compound: CSc1ccc2c(c1)S(=O)(=O)N(C)c1ccccc1C2NCCCCCCC(=O)O (stereo not shown) [Compound 9c, 7-((6-Methyl-3-(methylthio)-5,5-dioxido-6,1l-dihydrodibenzo [c,f][1,2]thiazepin-11-yl)amino)heptanoic acid]
- EC50 [1, 5]: 41.8 nM
- Emax ([2]; BRET G protein activation): 51%
- Human DOR Emax ([2]; BRET G protein activation): 51%
- Human DOR agonist type (partial / full agonist) ([2]; BRET G protein activation): partial agonist
- EC50 [2, 6]: 2060 nM
- DOR Emax relative to the control agonist DPDPE ([2]; FIG. 1): lesser Emax than the control agonist DPDPE

Compound: CN1c2ccccc2C(NCCCCCCCC(=O)O)c2ccc(Br)cc2S1(=O)=O (stereo not shown) [Compound 9d, 8-((3-Bromo-6-methyl-5,5-dioxido-6,11-dihydrodibenzo [c,f][1,2]thiazepin-11-yl)amino) octanoic acid hydrochloride salt]
- EC50 [1]: 56 ± 24 nM
- EC50 [2]: 1700 ± 40 nM

Compound: CN1c2ccccc2C(NCCCCCCCCC(=O)O)c2ccc(I)cc2S1(=O)=O (stereo not shown) [Compound 9f, 9-((3-Iodo-6-methyl-5,5-dioxido-6,11-dihydrodibenzo [c,f][1,2]thiazepin-11-yl)amino) nonanoic acid hydrochloride salt]
- EC50 [1]: 22 ± 14 nM
- EC50 [2]: 530 ± 340 nM

Compound: CN1c2ccccc2C(NCCCCCCCCCCC(=O)O)c2ccc(I)cc2S1(=O)=O (stereo not shown) [Compound 9h, 11-((3-Iodo-6-methyl-5,5-dioxido-6,11-dihydrodibenzo [c,f][1,2]thiazepin-11-yl)amino)undecanoic acid hydrochloride salt]
- EC50 [1]: 110 ± 29 nM
- EC50 [2]: 700 ± 305 nM

Compound: CN1c2ccccc2C(NCCCCCCC(=O)O)c2cc(Cl)c(Cl)cc2S1(=O)=O.Cl (stereo not shown) [Compound 9i, 7-((2,3-dichloro-6-methyl-5,5-dioxido-6,11-dihydrodibenzo [c,f][1,2]thiazepin-11-yl)amino)heptanoic acid hydrochloride salt]
- EC50 [1]: 172 nM
- MOR potency relative to analogs lacking substitution at position 2 [1]: equipotent or more potent

Compound: CN1c2ccccc2C(NCCCCCCC(=O)O)c2cc(F)c(Cl)cc2S1(=O)=O.Cl (stereo not shown) [Compound 9j, 7-((3-chloro-2-fluoro-6-methyl-5,5-dioxido-6,11-dihydrodibenzo [c,f][1,2]thiazepin-11-yl)amino)heptanoic acid hydrochloride salt]
- solubility (physchem; pH 1, simulated gastric fluid): 5300 µg/mL
- solubility (physchem; pH 7, aqueous buffer): 70 µg/mL
- EC50 [1]: 129 nM
- MOR potency relative to analogs lacking substitution at position 2 [1]: equipotent or more potent

Compound: CN1c2ccccc2C(NCCCCC(=O)O)c2cc(F)c(Br)cc2S1(=O)=O.Cl (stereo not shown) [Compound 9l, 5-((3-bromo-2-fluoro-6-methyl-5,5-dioxido-6,11-dihydrodibenzo [c,f][1,2]thiazepin-11-yl)amino)pentanoic acid hydrochloride salt]
- EC50 [1]: 45 nM
- MOR potency relative to analogs lacking substitution at position 2 [1]: equipotent or more potent

Compound: CCOC(=O)CCCCCCNC1c2ccccc2N(C)S(=O)(=O)c2ccc(Cl)cc21 (stereo not shown) [Compound 15a, reference compound]
- EC50 [1]: 4150 ± 930 nM

Compound: CCOC(=O)CCCCCCNC1c2ccccc2N(C)S(=O)(=O)c2ccccc21 (stereo not shown) [Compound 15c, reference compound]
- EC50 [1]: 156 ± 84.7 nM

Compound: COCCCNC1c2ccccc2N(C)S(=O)(=O)c2ccc(Cl)cc21 (stereo not shown) [Compound 16a, reference compound]
- EC50 [1, 5]: 16900 ± 5220 nM

Compound: COCCCNC1c2ccccc2N(C)S(=O)(=O)c2cc(Cl)ccc21 (stereo not shown) [Compound 16b, reference compound]
- EC50 [1, 5]: 264 ± 85.3 nM

Compound: COCCCNC1c2ccccc2N(C)S(=O)(=O)c2ccccc21 (stereo not shown) [Compound 16c, reference compound]
- EC50 [1, 5]: 2010 ± 700 nM

Compound: CN1c2ccccc2C(NCCCCCCC(=O)[O-])c2ccc(Cl)cc2S1(=O)=O.[Na+] (stereo not shown) [Tianeptine (Na salt), Tianeptine, reference compound]
- ED50 (male C57BL/6 mice): 15 mg/kg

Compound: CN1c2ccccc2C(NCCCCCCC(=O)O)c2ccc(Br)cc2S1(=O)=O.Cl (stereo not shown) [bromotianeptine, reference compound]
- solubility (physchem; pH 1, simulated gastric fluid): < 100 µg/mL
- solubility (physchem; pH 7, aqueous buffer): 620 µg/mL
- solubility at 24 h [3]: 4.5 mg/mL

Compound: CN1c2ccccc2C(NCCCCCCC(=O)O)c2ccc(I)cc2S1(=O)=O.Cl (stereo not shown) [iodotianeptine, reference compound]
- solubility (physchem; pH 1, simulated gastric fluid): < 100 µg/mL
- solubility (physchem; pH 7, aqueous buffer): 150 µg/mL
- solubility at 2 h [4]: 2.3 mg/mL
